Activity calls are given as the source filed them. The rule behind the calls is not given here.
Test system: CCRIS mutagenicity, Ames/micronucleus/aberration tests
Assay: CCRIS mutagenicity studies
[1] = Test System: AMES SALMONELLA TYPHIMURIUM, Strain/Indicator: TA98, Metabolic Activation: HAMSTER, LIVER, S-9, AROCLOR 1254 (10%), Method: PREINCUBATION
[2] = Test System: AMES SALMONELLA TYPHIMURIUM, Strain/Indicator: TA98, Metabolic Activation: HAMSTER, LIVER, S-9, AROCLOR 1254 (30%), Method: PREINCUBATION
[3] = Test System: AMES SALMONELLA TYPHIMURIUM, Strain/Indicator: TA98, Metabolic Activation: NONE, Method: PREINCUBATION
[4] = Test System: AMES SALMONELLA TYPHIMURIUM, Strain/Indicator: TA98, Metabolic Activation: RAT, LIVER, S-9, AROCLOR 1254 (10%), Method: PREINCUBATION
[5] = Test System: AMES SALMONELLA TYPHIMURIUM, Strain/Indicator: TA98, Metabolic Activation: RAT, LIVER, S-9, AROCLOR 1254 (30%), Method: PREINCUBATION
[6] = Test System: AMES SALMONELLA TYPHIMURIUM, Strain/Indicator: TA100, Metabolic Activation: HAMSTER, LIVER, S-9, AROCLOR 1254 (10%), Method: PREINCUBATION
[7] = Test System: AMES SALMONELLA TYPHIMURIUM, Strain/Indicator: TA100, Metabolic Activation: HAMSTER, LIVER, S-9, AROCLOR 1254 (30%), Method: PREINCUBATION
[8] = Test System: AMES SALMONELLA TYPHIMURIUM, Strain/Indicator: TA100, Metabolic Activation: NONE, Method: PREINCUBATION
[9] = Test System: AMES SALMONELLA TYPHIMURIUM, Strain/Indicator: TA100, Metabolic Activation: RAT, LIVER, S-9, AROCLOR 1254 (10%), Method: PREINCUBATION
[10] = Test System: AMES SALMONELLA TYPHIMURIUM, Strain/Indicator: TA100, Metabolic Activation: RAT, LIVER, S-9, AROCLOR 1254 (30%), Method: PREINCUBATION
[11] = Test System: AMES SALMONELLA TYPHIMURIUM, Strain/Indicator: TA1535, Metabolic Activation: HAMSTER, LIVER, S-9, AROCLOR 1254 (10%), Method: PREINCUBATION
[12] = Test System: AMES SALMONELLA TYPHIMURIUM, Strain/Indicator: TA1535, Metabolic Activation: NONE, Method: PREINCUBATION
[13] = Test System: AMES SALMONELLA TYPHIMURIUM, Strain/Indicator: TA1535, Metabolic Activation: RAT, LIVER, S-9, AROCLOR 1254 (10%), Method: PREINCUBATION
[14] = Test System: AMES SALMONELLA TYPHIMURIUM, Strain/Indicator: TA98, Metabolic Activation: NONE, Method: STANDARD PLATE
[15] = Test System: AMES SALMONELLA TYPHIMURIUM, Strain/Indicator: TA100, Metabolic Activation: NONE, Method: STANDARD PLATE

With CC(=O)NBr the mutagenic call (Test System: AMES SALMONELLA TYPHIMURIUM, Strain/Indicator: TA97, Metabolic Activation: HAMSTER, LIVER, S-9, AROCLOR 1254 (10%), Method: PREINCUBATION) was “inactive; negative”, the mutagenic call (Test System: AMES SALMONELLA TYPHIMURIUM, Strain/Indicator: TA97, Metabolic Activation: HAMSTER, LIVER, S-9, AROCLOR 1254 (30%), Method: PREINCUBATION) was “inactive; negative” and the mutagenic call (Test System: AMES SALMONELLA TYPHIMURIUM, Strain/Indicator: TA97, Metabolic Activation: NONE, Method: PREINCUBATION) was “inactive; negative”. For the same molecule, the mutagenic call (Test System: AMES SALMONELLA TYPHIMURIUM, Strain/Indicator: TA97, Metabolic Activation: RAT, LIVER, S-9, AROCLOR 1254 (10%), Method: PREINCUBATION) was “inactive; negative”, the mutagenic call (Test System: AMES SALMONELLA TYPHIMURIUM, Strain/Indicator: TA97, Metabolic Activation: RAT, LIVER, S-9, AROCLOR 1254 (30%), Method: PREINCUBATION) was “inactive; negative” and the mutagenic call [1] was “inactive; negative”. The mutagenic call [2] was “inactive; negative”, the mutagenic call [3] was “inactive; negative” and the mutagenic call [4] was “inactive; negative”. For the same molecule, the mutagenic call [5] was “inactive; negative”, the mutagenic call [6] was “inactive; negative” and the mutagenic call [7] was “inactive; negative”. The mutagenic call [8] was “inactive; negative”, the mutagenic call [9] was “inactive; negative” and the mutagenic call [10] was “inactive; negative”. For the same molecule, the mutagenic call [11] was “inactive; negative”, the mutagenic call (Test System: AMES SALMONELLA TYPHIMURIUM, Strain/Indicator: TA1535, Metabolic Activation: HAMSTER, LIVER, S-9, AROCLOR 1254 (30%), Method: PREINCUBATION) was “inactive; negative” and the mutagenic call [12] was “inactive; negative”. For the same molecule, the mutagenic call [13] was “inactive; negative” and the mutagenic call (Test System: AMES SALMONELLA TYPHIMURIUM, Strain/Indicator: TA1535, Metabolic Activation: RAT, LIVER, S-9, AROCLOR 1254 (30%), Method: PREINCUBATION) was “inactive; negative”.

In the case of O=[N+]([O-])c1c2ccccc2cc2ccccc12, the mutagenic call [2] is reported as “active; positive”, the mutagenic call [3] is reported as “active; positive” and the mutagenic call [14] is reported as “active; positive”. For the same molecule, the mutagenic call [4] was “active; positive”, the mutagenic call [5] was “active; positive” and the mutagenic call (Test System: AMES SALMONELLA TYPHIMURIUM, Strain/Indicator: TA98, Metabolic Activation: RAT, LIVER, S-9, Method: STANDARD PLATE) was “active; positive”. For the same molecule, the mutagenic call [7] was “active; positive”, the mutagenic call [8] was “active; positive” and the mutagenic call [15] was “inactive; negative”. The mutagenic call [9] was “active; positive”, the mutagenic call [10] was “active; positive” and the mutagenic call (Test System: AMES SALMONELLA TYPHIMURIUM, Strain/Indicator: TA100, Metabolic Activation: RAT, LIVER, S-9, Method: STANDARD PLATE) was “inactive; negative”.

With ONc1cccc2ccccc12 the mutagenic call [14] was “active; positive” and the mutagenic call [15] was “active; positive”.

Nc1ncnc2c1ncn2-c1ccc([N+](=O)[O-])cc1[N+](=O)[O-] was tested, and the mutagenic call (Test System: AMES SALMONELLA TYPHIMURIUM, Strain/Indicator: TA98(1,8-DNP), Metabolic Activation: NONE, Method: PREINCUBATION) was “inactive; negative”, the mutagenic call (Test System: AMES SALMONELLA TYPHIMURIUM, Strain/Indicator: TA98(1,8-DNP), Metabolic Activation: RAT, LIVER, S-9, PCB, Method: PREINCUBATION) was “inactive; negative” and the mutagenic call (Test System: AMES SALMONELLA TYPHIMURIUM, Strain/Indicator: TA98(NR), Metabolic Activation: NONE, Method: PREINCUBATION) was “inactive; negative”. For the same molecule, the mutagenic call (Test System: AMES SALMONELLA TYPHIMURIUM, Strain/Indicator: TA98(NR), Metabolic Activation: RAT, LIVER, S-9, PCB, Method: PREINCUBATION) was “inactive; negative”, the mutagenic call [3] was “inactive; negative” and the mutagenic call (Test System: AMES SALMONELLA TYPHIMURIUM, Strain/Indicator: TA98, Metabolic Activation: RAT, LIVER, S-9, PCB, Method: PREINCUBATION) was “inactive; negative”. The mutagenic call (Test System: AMES SALMONELLA TYPHIMURIUM, Strain/Indicator: TA100(1,8-DNP), Metabolic Activation: RAT, LIVER, S-9, PCB, Method: PREINCUBATION) was “inactive; negative”, the mutagenic call (Test System: AMES SALMONELLA TYPHIMURIUM, Strain/Indicator: TA100(NR), Metabolic Activation: NONE, Method: PREINCUBATION) was “inactive; negative” and the mutagenic call (Test System: AMES SALMONELLA TYPHIMURIUM, Strain/Indicator: TA100(NR), Metabolic Activation: RAT, LIVER, S-9, PCB, Method: PREINCUBATION) was “inactive; negative”. For the same molecule, the mutagenic call [8] was “active; positive”, the mutagenic call (Test System: AMES SALMONELLA TYPHIMURIUM, Strain/Indicator: YG1020, Metabolic Activation: RAT, LIVER, S-9, PCB, Method: PREINCUBATION) was “inactive; negative” and the mutagenic call (Test System: AMES SALMONELLA TYPHIMURIUM, Strain/Indicator: YG1021, Metabolic Activation: RAT, LIVER, S-9, PCB, Method: PREINCUBATION) was “inactive; negative”. The mutagenic call (Test System: AMES SALMONELLA TYPHIMURIUM, Strain/Indicator: YG1024, Metabolic Activation: NONE, Method: PREINCUBATION) was “active; positive”, the mutagenic call (Test System: AMES SALMONELLA TYPHIMURIUM, Strain/Indicator: YG1024, Metabolic Activation: RAT, LIVER, S-9, PCB, Method: PREINCUBATION) was “active; positive” and the mutagenic call (Test System: AMES SALMONELLA TYPHIMURIUM, Strain/Indicator: YG1025, Metabolic Activation: NONE, Method: PREINCUBATION) was “inactive; negative”. For the same molecule, the mutagenic call (Test System: AMES SALMONELLA TYPHIMURIUM, Strain/Indicator: YG1025, Metabolic Activation: RAT, LIVER, S-9, PCB, Method: PREINCUBATION) was “inactive; negative”, the mutagenic call (Test System: AMES SALMONELLA TYPHIMURIUM, Strain/Indicator: YG1026, Metabolic Activation: NONE, Method: PREINCUBATION) was “inactive; negative” and the mutagenic call (Test System: AMES SALMONELLA TYPHIMURIUM, Strain/Indicator: YG1026, Metabolic Activation: RAT, LIVER, S-9, PCB, Method: PREINCUBATION) was “inactive; negative”. For the same molecule, the mutagenic call (Test System: AMES SALMONELLA TYPHIMURIUM, Strain/Indicator: YG1029, Metabolic Activation: NONE, Method: PREINCUBATION) was “active; positive” and the mutagenic call (Test System: AMES SALMONELLA TYPHIMURIUM, Strain/Indicator: YG1029, Metabolic Activation: RAT, LIVER, S-9, PCB, Method: PREINCUBATION) was “active; positive”.

With CNC(=O)Oc1cccc2c1OC(C)(C)C2O (stereo not drawn) the mutagenic call (End Point: IN VIVO MICRONUCLEUS, Test System: BONE MARROW POLYCHROMATIC ERYTHROCYTES, Species: MOUSE, Strain/Sex: KM/MALE, FEMALE, Route: IP INJECTION) was “active; positive”.

For C[CH2][Hg][S]c1ccccc1C(=O)O, the mutagenic call (End Point: IN VITRO MICRONUCLEUS, Test System: HAMSTER V79 CELLS, Metabolic Activation: NONE) was “active; positive”, the mutagenic call [1] was “inactive; negative” and the mutagenic call [3] was “inactive; negative”. For the same molecule, the mutagenic call [4] was “inactive; negative”, the mutagenic call [6] was “inactive; negative” and the mutagenic call [8] was “inactive; negative”. For the same molecule, the mutagenic call [9] was “inactive; negative”, the mutagenic call [11] was “inactive; negative” and the mutagenic call [12] was “inactive; negative”. For the same molecule, the mutagenic call [13] was “inactive; negative”, the mutagenic call (Test System: AMES SALMONELLA TYPHIMURIUM, Strain/Indicator: TA1537, Metabolic Activation: HAMSTER, LIVER, S-9, AROCLOR 1254 (10%), Method: PREINCUBATION) was “inactive; negative” and the mutagenic call (Test System: AMES SALMONELLA TYPHIMURIUM, Strain/Indicator: TA1537, Metabolic Activation: NONE, Method: PREINCUBATION) was “inactive; negative”. The mutagenic call (Test System: AMES SALMONELLA TYPHIMURIUM, Strain/Indicator: TA1537, Metabolic Activation: RAT, LIVER, S-9, AROCLOR 1254 (10%), Method: PREINCUBATION) was “inactive; negative”.

Reference: PubChem BioAssay AID1259407 (Chemical Carcinogenesis Research Information System (CCRIS), 2018)
